The text below walks through data of patent US20040093331A1, “Computer program products, systems and methods for information discovery and relational analyses” (Board of Regents, University of Texas System, priority 2002, published 2004).

This assay has as its system cardiac hypertrophy. Description: Isoproterenol-induced cardiac hypertrophy in mice, osmotic micro-infusion pumps, echocardiography before and 7 days after start of infusion. It is filed as in vivo. On the procedure:
Validation of a relevant relationship between chlorpromazine and cardiac hypertrophy was performed through a series of laboratory studies in mice comparing the effects of a known beta-adrenergic agonist (also known to induce hypertrophy), isoproterenol, with isoproterenol plus chlorpromazine.
In brief, the study included 2 groups of 8 mice fitted with osmotic micro-infusion pumps. One group was given a continuous dose of 20 mg/kg/day isoproterenol and the other 20 mg/kg/day isopreterenol+10 mg/kg/day chlorpromazine. A smaller dose of chlorpromazine was chosen in preference to a larger one to minimize alterations in feeding behavior. Additionally, it reduced an adverse reaction between chlorpromazine and avertin (tribromoethanol), a anesthetic agent. Echocardiograms were taken before treatment and 7 days after initiation of infusions. Mice were sacrificed and their heart weighed.
FIG. 19 and TABLE 22 summarize the study findings. Generally, cardiac hypertrophy (as assessed by echocardiography) was reduced in mice treated with chlorpromazine plus isoproterenol. […] Echocardiography was use to estimate the change in weight or thickness of several different cardiac structures over the course of treatment. For FIG. 19, ten mice received isoproterenol (ISO) and eight received isoproterenol and chlorpromazine (CPZ+ISO), where LVW=left ventricle weight (CPZ+ISO 11±27%, ISO 51±43%, P<0.02); LVMI=left ventricular mass index (CPZ+ISO 11±28%, ISO 50±52%, P<0.04); PWT=posterior wall thickness (CPZ+ISO 16±16%, ISO 36±27%, P<0.05), IVSWT=intraventricular septum wall thickness (CPZ+ISO 19±18%, ISO 31±20%, P<0.12).

As to `CC(C)NCC(O)c1ccc(O)c(O)c1` (stereo not shown) [ISO, isoproterenol], the “LVMI=left ventricular mass index” value (FIG. 19, change over course of treatment, echocardiography, P<0.04) turned out to be 50±52%. Besides, the “PWT=posterior wall thickness” value (FIG. 19, change over course of treatment, echocardiography, P<0.05) is on record as 36±27%. In addition, the “IVSWT=intraventricular septum wall thickness” value (FIG. 19, change over course of treatment, echocardiography, P<0.12) came to 31±20%. In addition, under “FIG. 19, change over course of treatment, echocardiography, ten mice ISO, eight CPZ+ISO, P<0.02”, the “LVW=left ventricle weight” value is 51±43%. Moreover, for the setting “Table 22, change in intraventricular septum wall thickness over treatment, echocardiography, 7 days infusion”, the “DI VS WT” value is listed as 31% ± 21%. Where the note is “Table 22, change in left ventricle weight over treatment, echocardiography, 20 mg/kg/day isoproterenol with or without 10 mg/kg/day chlorpromazine, 7 days”, the LLVW is 53% ± 45%. Also, the OLVMI (Table 22, change in left ventricular mass index over treatment, echocardiography, 7 days infusion) is 50% ± 55%. Further, the OPWT (Table 22, change in posterior wall thickness over treatment, echocardiography, 7 days infusion) is 36% ± 28%.
Turning to `C=CCN1CC[C@]23c4c5ccc(O)c4O[C@H]2C(=O)CC[C@@]3(O)[C@H]1C5` [Naloxone], the “effect of the drug in a mouse model of cardiohypertrophy” value (mouse model as described for chlorpromazine, values not given) is recorded as “validated in vivo”.
For `CN(C)CCCN1c2ccccc2Sc2ccc(Cl)cc21` [chlorpromazine], the “cardiac hypertrophy (as assessed by echocardiography)” value (10 mg/kg/day chlorpromazine + 20 mg/kg/day isoproterenol versus isoproterenol alone, mice) is listed as “protected the mice against the development of cardiac hypertrophy”.
